Test results as given in article PMC11094793, “Discovery of LLC0424 as a Potent and Selective in Vivo NSD2 PROTAC Degrader” (Journal of Medicinal Chemistry, 2024).

How the values were obtained:
[1] = system: RPMI-8402 cells; experiment: Cell viability assay (CellTiter-Glo, 7 days), RPMI-8402; type: cell-based, human; conditions: Homo sapiens, 168 h, read-out: IC50 (growth, cell viability)
Description: Cells were plated in 50 μL of the corresponding media in 96-well plates. A 2-fold dilution series of 2* concentrated LLC0424 was prepared in a medium with the highest concentration being 60 μM. Then 50 μL of the 2× compound-containing mixture was added to each well with 6 replicates for each concentration, reaching 1× concentration, with the highest concentration being 30 μM. The plate was incubated for 7 days. At the end point, the CellTiter-Glo assay (Promega) was then performed according to the manufacturer’s instruction to determine cell proliferation. The luminescence signal intensity of each well was acquired on an Infinite M1000Pro microplate reader and the data was analyzed using GraphPad Prism software (GraphPad Software).

[2] = system: SEM cells; experiment: Proliferation assay (CellTiter-Glo, 9 days), SEM; type: cell-based, human; conditions: 5 μM (Fig 6E) or 2 μM (Fig S4A)
Description: 2 × 10^3 cells per well were seeded in 5 replicates into 96-well plates and treated with 5 μM of the compound. Every 4 days, we added the compound with 5 μL of the 20* compound-containing mixture, reaching 1*concentration. Cell proliferation was evaluated by CellTiter-Glo assay (Promega).

[3] = biological target: T1, NSD2 (Homo sapiens, UniProt O96028, E1099K); experiment: Pharmacodynamic assessment in SEM xenograft model (IHC, Western blot); type: in vivo, mice; conditions: 60 mg/kg iv, 5 consecutive days, versus vehicle
T1 construct: from tissue; host or cells: SEM subcutaneous xenograft tumours in CB17 SCID mice
T1 sequence (O96028 1-1365 E1099K): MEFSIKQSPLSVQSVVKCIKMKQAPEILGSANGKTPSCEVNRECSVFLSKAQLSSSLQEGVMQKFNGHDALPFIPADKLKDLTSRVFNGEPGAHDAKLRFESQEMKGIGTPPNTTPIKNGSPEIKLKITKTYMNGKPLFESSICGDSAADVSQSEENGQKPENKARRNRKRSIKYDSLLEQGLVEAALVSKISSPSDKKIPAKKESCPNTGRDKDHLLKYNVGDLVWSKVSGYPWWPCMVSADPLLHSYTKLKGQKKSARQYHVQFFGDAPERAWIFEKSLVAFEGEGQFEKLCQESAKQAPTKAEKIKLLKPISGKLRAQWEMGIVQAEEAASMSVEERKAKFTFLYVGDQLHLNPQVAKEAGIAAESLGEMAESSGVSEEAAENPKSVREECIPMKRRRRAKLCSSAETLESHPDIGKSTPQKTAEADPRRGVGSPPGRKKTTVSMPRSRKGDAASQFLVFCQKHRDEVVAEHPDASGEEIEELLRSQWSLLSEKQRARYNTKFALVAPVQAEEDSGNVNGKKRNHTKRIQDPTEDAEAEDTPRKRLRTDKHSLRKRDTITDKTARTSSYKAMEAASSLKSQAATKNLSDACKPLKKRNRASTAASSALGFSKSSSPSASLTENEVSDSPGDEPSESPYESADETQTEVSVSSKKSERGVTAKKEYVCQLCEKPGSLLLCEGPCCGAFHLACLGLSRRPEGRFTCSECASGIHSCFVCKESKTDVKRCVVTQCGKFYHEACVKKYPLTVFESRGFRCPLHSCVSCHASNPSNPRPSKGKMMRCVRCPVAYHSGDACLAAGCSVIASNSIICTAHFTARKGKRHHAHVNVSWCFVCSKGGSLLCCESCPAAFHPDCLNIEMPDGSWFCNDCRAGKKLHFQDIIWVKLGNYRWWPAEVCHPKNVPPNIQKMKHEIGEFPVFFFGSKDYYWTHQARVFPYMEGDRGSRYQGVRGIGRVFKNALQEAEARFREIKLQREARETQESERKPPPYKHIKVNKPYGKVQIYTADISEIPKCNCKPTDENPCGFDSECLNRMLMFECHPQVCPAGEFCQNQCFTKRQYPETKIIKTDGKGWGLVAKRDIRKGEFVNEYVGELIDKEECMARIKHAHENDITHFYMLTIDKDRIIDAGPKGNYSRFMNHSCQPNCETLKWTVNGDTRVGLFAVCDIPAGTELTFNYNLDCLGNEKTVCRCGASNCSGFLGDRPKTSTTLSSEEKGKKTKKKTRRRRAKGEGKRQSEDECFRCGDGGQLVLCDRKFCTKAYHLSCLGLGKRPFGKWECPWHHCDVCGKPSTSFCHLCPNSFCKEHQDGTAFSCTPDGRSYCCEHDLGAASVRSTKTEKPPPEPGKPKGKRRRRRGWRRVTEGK
Description: We finally performed pharmacodynamic assessment of LLC0424 in both the SEM and 22RV1 xenograft model. Based on the solubility of LLC0424 and the tolerance of the mice, we chose 60 mg/kg as the dosage for the pharmacodynamic study. LLC0424 was administrated by intravenous (iv) or intraperitoneal (ip) injection at a dose of 60 mg/kg for 5 consecutive days. The tumor tissues were harvested at day 5 and subjected to histology and Western blot analysis (Figure 7A, and SI, Figure S6A).
First, 6–8 weeks old male CB17 severe combined immunodeficiency (SCID) mice were procured from the University of Michigan breeding colony. Subcutaneous tumors were established at both sides of the dorsal flank of mice. Tumors were measured at least biweekly using digital calipers following the formula (π/6) (L × W2), where L is length and W is width of the tumor. At the end of the studies, mice were sacrificed and tumors extracted. For each tumor, a part is […] followed by embedding in paraffin to make tissue blocks. The blocks were sectioned at […] for immunohistochemistry analysis. Another part is made into tissue lysates for Western blotting analysis. The University of Michigan Institutional Animal Care and Use Committee (IACUC) approved all in vivo studies. […]

NSD2 level in tumor tissue [3]: significantly downregulated
Compound: O=C1CCC(N2C(=O)c3ccc(N4CCC(NC(=O)c5ccc(NC(=O)c6ccc(CN(C(=O)c7ccc8c(c7)OCC(=O)N8)C7CC7)cc6)cc5)CC4)cc3C2=O)C(=O)N1 (stereo not drawn) [compound 10l, N-Cyclopropyl-N-(4-((4-((1-(2-(2,6-dioxopiperidin-3-yl)-1,3-dioxoisoindolin-5-yl)piperidin-4-yl)carbamoyl)phenyl)carbamoyl)benzyl)-3-oxo-3,4-dihydro-2H-benzo[b][1,4]oxazine-7-carboxamide]
IC50 [1]: 560 nM
cell growth on treatment for 9 days [2]: significantly inhibited
